Columns and labels:
parental CHO-K1 cells = assay: Parental cAMP counter assay (cells lacking APJ); type: cell-based; settings: Cricetulus griseus
Protocol: To identify small-molecule antagonists of the apelin receptor (APJ) we interrogated the SBP compound file of ~425,000 compounds using CHO-k1-AGTRL1 cells overexpressing human APJ and a competitive immunoassay of intracellular cAMP [59]. The compound file was screened at a concentration of 10 μM. For all 333 plates assayed, the average Z-factor = 0.68 and the average S/B = 8.2, indicating a robust assay performance. […] There were 2550 compounds that met this criterion, representing a hit rate of ~0.6%. […] Included in this hit set was a series of aminoquinolines, exemplified by compound 1 (Fig 1B). […] As part of an initial hit-validation strategy, these compounds and three other commercially available analogs were purchased for further testing. The purity and identify of all compounds were confirmed by NMR and LC-MS, and they were subsequently retested in a battery of cell-based assays of APJ function and counter screens. […] (Fig 1D).
PathHunter™ GPCR Arrestin and cAMP Hunter™ cell lines (DiscoveRx Corp., Fremont, CA) were used to assay G-protein-dependent signaling and β-arrestin recruitment to APJ. CHO-K1 cells stably expressing APJ (CHO-K1-APJ) or AT1 (CHO-K1-AT1) with β-arrestin/β-galactosidase enzyme fragment complementation constructs were maintained in HAM's F-12 medium (Hyclone, Logan, UT) supplemented with 10% FBS, 1X Penicillin-Streptomycin-Glutamine (Invitrogen; Carlsbad, CA), 300 μg/ml hygromycin (EMD Biosciences, San Diego, CA), and 800 μg/ml Geneticin (Cellgro, Manassas, VA). Primary Human Retinal Microvascular Endothelial Cells (HRECs) were purchased from Cell Systems (Kirkland, WA) and maintained in Complete Classic Medium with CultureBoost-R™ (Cell Systems). Parent CHO-K1 cells were obtained from ATCC and maintained in HAM’s F-12 medium supplemented with 10% FBS, and1X Penicillin-Streptomycin-Glutamine (Invitrogen; Carlsbad, CA). All cells were incubated at 37°C (5% CO2, 95% relative humidity) and maintained at less than 70% to 80% confluence (approximately 75,000 cells/cm^2). Cell heterologously expressing APJ or AT1 were not used after 10 passages. HRECs were not used in any experiments after five passages.
All reagents unless otherwise specified are components of the cAMP HitHunter (DiscoveRx) kit. Ligand Buffer + 60 μM Forskolin (Cayman Chemical, Ann Arbor, MI) was made fresh on the day of the experiment and used for the dilution of positive and negative controls as well as all peptides. CHO-K1-APJ cells were dispensed into a 1536-well tissue culture microplate (Corning, Corning, NY) using a Multidrop at a seeding density of 1,000 cells/well and returned to the incubator. The next day, the cell culture media was removed and replaced with 15 μl/well of assay buffer (1X HBSS, 10 mM HEPES) containing anti-cAMP antibody (DiscoveRx). […] Plates were incubated at room temperature in the dark for 3 hours prior to chemiluminescence detection on an EnVision (Perkin Elmer) using a counting time of 1 s/well.

[1] = Cytotoxicity, ATP-Lite, HRECs; type: cell-based; settings: human, HREC cells; HRECs; read-out: Cytotoxicity LC50
Protocol: (§1) Fa2N-4 immortalized human hepatocytes (Xenotech) or HREC cells were grown to subconfluency in wells of a 96-well plate and exposed to different concentrations of compounds for 24 h after which the cells were washed and the media and compounds replaced. The cells were returned to the incubator for another 24 h. The extent of cell death (cell lysis) was determined by ATP-Lite reagent (Perkin-Elmer).

HRECs = assay: Cytotoxicity, ATP-Lite, HRECs; type: cell-based; settings: tested up to 100 μM
Protocol: as §1

[2] = tested on: human retinal microvascular endothelial cells (HRECs); assay: In vitro HREC tube formation assay; type: cell-based
Protocol: In vitro tube formation assays were carried out as previously described. Briefly, near confluent microvascular endothelial cells were pretreated with VEGF (100 ng/ml) for 2 h and then treated for 24 h with test compounds at serial concentrations, as indicated. Cells without VEGF treatment or with VEGF only were used as control. The cells were then detached and plated sparsely (2.5 ×10^4/well) on 24-well plates coated with 12.5% (v/v) Matrigel (BD, Franklin Lakes, NJ) and left overnight. The medium was then aspirated and 250 μl/well of 12.5% Matrigel was overlaid on the cells for 2 h to allow the polymerization of Matrigel, followed by addition of 500 μl/well of basal medium MCD131 with 10% fetal calf serum (FCS) for 24 h. The following day, the culture plates were observed under a phase contrast microscope and photographed at random in five fields (×10). The tubule length (mm/mm^2) per microscope field was quantified.

[3] = Tissue distribution in the mouse eye after intravitreal injection; type: in vivo; settings: 7 d after IVT administration
Protocol: Mice were assigned to groups (n = 6/group) that received either 50 μg compound, or vehicle via intravitreal injection (1 μl volume). One day after injection, ½ of the mice (n = 3 / group) mice were euthanized. The eyes were enucleated and the vitreous humor, retina, and RPE/Choroid/sclera were isolated and snap frozen in liquid N2. The remaining mice in each treatment group (n = 3 / group) were euthanized and the same tissues collected. The quantity of compound in the tissues (n = 6 eyes / treatment group) was measured using LC-MS/MS.

[4] = tested on: choroidal neovascularization (CNV) lesions; assay: Laser-induced CNV mouse model; type: in vivo; settings: for CNV lesion volume vs vehicle control: two injections, choroidal flatmounts, 14 days post-laser

CCN(CC)Cc1cc(Nc2ccnc3cc(Cl)ccc23)ccc1O [AQ, amodiaquine]
IC50 (parental CHO-K1 cells): > 99 µM
CC50 at 48 h [1]: > 100 µM
Cytotoxicity to HRECs (HRECs): Neither ML221 nor AQ were significantly toxic
Effect on Ap13-dependent increase in HREC tube formation ([2]; Ap13-induced, concentration-dependent): blocked Ap13-dependent increases in tube formation
Effect on VEGF-induced HREC tube formation ([2]; VEGF 100 ng/mL, absence of exogenous Ap13): blocked VEGF-induced tube formation
AQ level in plasma [3]: No detectable levels
CNV lesion size by optical coherence tomography vs vehicle treated eyes ([4]; 14 days post-laser injury, intravitreal AQ 5.0-50.0 μg): significantly smaller
CNV lesion volume vs vehicle control ([4]; AQ 5.0 μg intravitreal): not a statistically significant reduction
CNV lesion volume vs vehicle control ([4]; AQ 10.0 μg intravitreal): not a statistically significant reduction
CNV lesion volume vs vehicle control ([4]; AQ 25.0 μg intravitreal): statistically significant decrease
CNV lesion volume vs vehicle control ([4]; AQ 50.0 μg intravitreal): an even greater decrease
CNV lesion size in confocal images of agglutinin-stained choroidal flatmounts ([4]; intravitreal AQ): reduction in CNV lesion size at 10μg AQ and higher

From publication PMC6135396, “Repurposing antimalarial aminoquinolines and related compounds for treatment of retinal neovascularization” (PLoS ONE, 2018)
